pIC50: −log10 of the molar value.
Experiments:
CB2 receptor = CB2 receptor (Homo sapiens, UniProt P34972); assay: CB2 binding assay
visceral pain = assay: Visceral pain, acetic acid induced writhing responses; format: in vivo, ICR mice; conditions: for inhibition of pain response as compared to untreated animals: 10 mg/kg p.o. in phosphate buffer; for reduction of writhing responses as compared to vehicle treated animals: second study; for effect of antagonist alone on number of writhing responses: 1 mg/kg i.v.; for activity in visceral pain model: fumaric acid up to 5 mg/kg, Gabapentin up to 200 mg/kg, celecoxib up to 10 mg/kg
Procedure: For the i.v. part of the study, compounds were dissolved in CREMOPHOR®:Ethanol and diluted 1:20 in saline prior to injection, fifteen minutes before pain induction. When compounds were delivered per os, they were dissolved in phosphate buffer or in CREMOPHOR®:Ethanol as previously described and administered 1 hour before pain induction. Each treatment group, except for controls comprising at least 30 animals, was composed of at least 6 animals. Fifteen or sixty minutes later, depending on the route selected for drug administration, the mice were injected i.p. with 10 ml/kg of 0.6% acetic acid and the number of visceral pain related behaviors (writhing, stretching, contractions of the abdomen accompanied by an elongation of the body and extension of the hind limbs) is counted over a period of 5 minutes, starting 5 minutes after the acetic acid administration. These visceral pain related behaviors are globally defined as writhing responses (WR). The results are expressed as mean number of writhing responses±SEM. Data were analyzed using analysis of variance (ANOVA) followed by post-hoc Fisher test. A value of p<0.05 was considered to be statistically significant and is indicated on the figure by an asterisk over the relevant treatment group.
The following results were obtained at 2 mg/kg i.v. of test compounds or, in the case of the study performed with cannabinoid receptor antagonists, 1 mg/kg test compound or antagonist alone and 1 mg/kg test compound+1 mg/kg antagonist. In a separate study, it was shown that analgesic activity of compounds of the invention was dose related.

CB1 receptor = CB1 receptor (Homo sapiens, UniProt P21554); assay: CB1 binding assay
Sequence of CB1 receptor (P21554 whole entry): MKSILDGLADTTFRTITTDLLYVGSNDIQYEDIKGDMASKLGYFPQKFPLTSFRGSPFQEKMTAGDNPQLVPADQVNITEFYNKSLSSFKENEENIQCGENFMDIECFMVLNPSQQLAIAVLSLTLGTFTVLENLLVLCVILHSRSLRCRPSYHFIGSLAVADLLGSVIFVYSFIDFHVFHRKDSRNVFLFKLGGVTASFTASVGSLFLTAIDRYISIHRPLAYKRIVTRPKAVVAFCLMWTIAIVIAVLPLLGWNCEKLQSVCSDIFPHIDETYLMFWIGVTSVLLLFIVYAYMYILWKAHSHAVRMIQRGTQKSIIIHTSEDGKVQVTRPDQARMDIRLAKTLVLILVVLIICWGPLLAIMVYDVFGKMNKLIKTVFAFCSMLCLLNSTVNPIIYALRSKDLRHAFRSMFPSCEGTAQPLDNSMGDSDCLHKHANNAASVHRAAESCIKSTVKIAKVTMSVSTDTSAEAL

MBP induced acute EAE = assay: MBP induced acute EAE; format: in vivo, Lewis rats; conditions: 30 mg/kg i.v. daily for 5 consecutive days from day of disease induction
Procedure: In the present study, EAE was induced by injection of Myelin Basic Protein (MBP), a method known to model the acute phase of MS. In this model the onset of the disease is observed by the appearance of clinical symptoms about 10 days after induction. The disease progresses and the clinical score increases and peaks around day 15 and spontaneous recovery is observed around day 23 after induction of the disease.
Female Lewis rats (average body weight 130-180 g, Harlan, Israel) were injected s.c. into the hind paws with 25 μg of purified guinea pig myelin basic protein (MBP, Sigma) emulsified in 0.1 ml of Complete Freund's Adjuvant (Difco). Animals were maintained on a 12 hours light/12 hours dark regimen, at a constant temperature of 22° C., with food and water ad libitum. Starting from day 8 following induction, animals were followed up on a daily basis. The results are recorded as clinical score; score of 0 indicates a normal animal with no clinical signs, 0.5 indicates a loss of tonicity in the tail's distal part, 1 indicates whole tail paralysis, 1.5 indicates hind legs weakness in one leg, 2 indicates hind legs weakness in two legs, 2.5 indicates fore legs paralysis in one leg, 3 indicates paralysis of all four legs, 4 indicates complete body paralysis and moribund state and 5 indicates death. The clinical score of the animals is recorded for 15 days following onset of disease until the end of the study 25 days following induction and the area under the curve (AUC) is calculated over this period of time.
Few routes of administration were assessed and the treatments were either administered intravenously (in CE vehicle) or orally by gavage (in PB vehicle) at volume dose of 5 ml/kg.
Results are expressed as mean±SEM and the differences between the treatment groups were analyzed by analysis of variance (ANOVA) followed by Tukey's post hoc test. A value of p<0.05 was considered to be statistically significant and is indicated on the figure by an asterisk over the relevant treatment group.
Compound 18A was dissolved in CREMOPHOR EL®:ethanol and further diluted in physiological buffer prior to i.v. administration. It is now disclosed that compound 18F could be dissolved directly in 80 mM phosphate buffer (pH 6.4) and administered p.o. Compound 18F was administered by oral gavage at doses of 20, 30, 40, 50 and 60 mg/kg to animals showing clinical signs of the disease. Each treatment group comprised at least 10 animals at onset of disease. At some doses, experiments were repeated up to four times.

Sequence of CB2 receptor (P34972 whole entry): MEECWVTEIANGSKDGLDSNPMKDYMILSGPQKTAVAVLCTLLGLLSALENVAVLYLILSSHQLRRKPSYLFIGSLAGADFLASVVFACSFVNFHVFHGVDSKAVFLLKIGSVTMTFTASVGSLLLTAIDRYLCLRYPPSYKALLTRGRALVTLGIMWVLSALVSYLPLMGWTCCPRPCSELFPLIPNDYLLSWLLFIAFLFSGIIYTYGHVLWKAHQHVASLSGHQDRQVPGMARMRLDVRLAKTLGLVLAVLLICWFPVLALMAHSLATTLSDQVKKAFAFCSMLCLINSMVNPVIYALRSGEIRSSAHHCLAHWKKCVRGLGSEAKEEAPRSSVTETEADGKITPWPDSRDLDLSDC

CCCCCCC(C)(C)c1cc(OC(=O)CCC(=O)O)c([C@H]2CC(=O)C3CC2C3(C)C)c(OC(=O)CCC(=O)O)c1 (single isomer, unassigned; (-)) [Compound 18C, (−)-4-{4-[1,1-dimethylheptyl]-2,6-disuccinate-phenyl}-6,6-dimethyl-bicyclo[3.1.1]heptan-2-one]
pIC50 (CB2 receptor): 8.82
inhibition of pain response as compared to untreated animals (visceral pain): 93%
pIC50 (CB1 receptor): 6.93

CCCCCCC(C)(C)c1cc(OP(=O)(OCC)OCC)c([C@H]2CC(=O)C3CC2C3(C)C)c(OP(=O)(OCC)OCC)c1 (single isomer, unassigned; (-)) [Compound 18D, (−)-4-{4-[1,1-dimethylheptyl]-2,6-bi-diethylphosphate-phenyl}-6,6-dimethyl-bicyclo[3.1.1]heptan-2-one]
pIC50 (CB2 receptor): < 6.00
inhibition of writhing responses as compared to vehicle treated group (visceral pain; 2 mg/kg i.v.): minimal effect
pIC50 (CB1 receptor): < 6.00

CCCCC(C)(C)c1cc(O)c([C@H]2CC(=O)C3CC2C3(C)C)c(OC(=O)/C=C/C(=O)O)c1 (single isomer, unassigned; (-)) [Compound 18H, (−)-4-{4-[1,1-Dimethylpentyl]-2-fumarate-6-hydroxy-phenyl}-6,6-dimethyl-bicyclo[3.1.1]heptan-2-one]
inhibition of writhing responses as compared to vehicle treated group (visceral pain; 2 mg/kg i.v.): 38%
inhibition of pain response as compared to untreated animals (visceral pain): not effective

Oc1cc2c(cc1O)CN(C(=S)NCCc1ccc(Cl)cc1)CCC2 [CPZ, Capsazepine, reference compound]
reduction of writhing responses as compared to vehicle treated animals (visceral pain; 0.5 mg/kg i.v.): no activity
reduction of writhing responses as compared to vehicle treated animals (visceral pain; 2 mg/kg i.v.): 67%

Cc1c(C(=O)NN2CCCCC2)nn(-c2ccc(Cl)cc2Cl)c1-c1ccc(Cl)cc1 [SR141716A, reference compound]
effect of antagonist alone on number of writhing responses (visceral pain): had not effect

Cc1ccc(-c2cc(C(F)(F)F)nn2-c2ccc(S(N)(=O)=O)cc2)cc1 [celecoxib, reference compound]
activity in visceral pain model (visceral pain): inactive

O=C(O)/C=C/C(=O)O [fumaric acid, reference compound]
activity in visceral pain model (visceral pain): inactive

C[C@H]1C[C@@H]2[C@H]([C@@H](O)C[C@@]3(C)[C@H]2CC[C@]3(O)C(=O)CO)[C@@]2(C)C=CC(=O)C=C12 [methylprednisolone, reference compound]
reduction in AUC of clinical score (MBP induced acute EAE): 34%

SR144528 [reference compound]
effect of antagonist alone on number of writhing responses (visceral pain): had not effect

Source: US20090068143A1, “ORALLY EFFECTIVE C[…]” (priority 2005, published 2009)
